The supplement of paper PMC13380429

Columns and labels:
Conditions in all cases: 72 h
U2OS [1] = experiment: cell viability relative to DMSO; higher = less toxic
Vero E6 [2] = experiment: as above
Calu-3 [3] = experiment: as above
Caco-2 [4] = experiment: as above
HepG2 [5] = experiment: as above
U2OS [6] = experiment: drug sensitivity score (DSS) for viability; higher = more toxic; extreme values may be limits of the assay
Vero E6 [7] = experiment: as above
Calu-3 [8] = experiment: as above
Caco-2 [9] = experiment: as above
HepG2 [10] = experiment: as above
U2OS [11] = experiment: relative viability EC50 (midpoint between 100% and the lowest measured viability); higher = less toxic
Vero E6 [12] = experiment: as above
Calu-3 [13] = experiment: as above
Caco-2 [14] = experiment: as above
HepG2 [15] = experiment: as above

Compound | cell viability (U2OS [1]; 1 nM) | cell viability (U2OS [1]; 10 nM) | cell viability (U2OS [1]; 100 nM) | cell viability (U2OS [1]; 1000 nM) | cell viability (U2OS [1]; 10000 nM) | cell viability (Vero E6 [2]; 1 nM) | cell viability (Vero E6 [2]; 10 nM) | cell viability (Vero E6 [2]; 100 nM) | cell viability (Vero E6 [2]; 1000 nM) | cell viability (Vero E6 [2]; 10000 nM) | cell viability (Calu-3 [3]; 1 nM) | cell viability (Calu-3 [3]; 10 nM) | cell viability (Calu-3 [3]; 100 nM) | cell viability (Calu-3 [3]; 1000 nM) | cell viability (Calu-3 [3]; 10000 nM) | cell viability (Caco-2 [4]; 1 nM) | cell viability (Caco-2 [4]; 10 nM) | cell viability (Caco-2 [4]; 100 nM) | cell viability (Caco-2 [4]; 1000 nM) | cell viability (Caco-2 [4]; 10000 nM) | cell viability (HepG2 [5]; 1 nM) | cell viability (HepG2 [5]; 10 nM) | cell viability (HepG2 [5]; 100 nM) | cell viability (HepG2 [5]; 1000 nM) | cell viability (HepG2 [5]; 10000 nM) | drug sensitivity score (U2OS [6]) | drug sensitivity score (Vero E6 [7]) | drug sensitivity score (Calu-3 [8]) | drug sensitivity score (Caco-2 [9]) | drug sensitivity score (HepG2 [10]) | relative viability EC50 (U2OS [11]) | relative viability EC50 (Vero E6 [12]) | relative viability EC50 (Calu-3 [13]) | relative viability EC50 (Caco-2 [14]) | relative viability EC50 (HepG2 [15])
CCCCCC(C)N (stereo not given) [tuaminoheptane] | 100% | 101% | 97.5% | 99.9% | 96.4% | 96.4% | 103% | 97.9% | 95% | 94.4% | 90.3% | 98.6% | 109% | 107% | 104% | 90.7% | 89.6% | 95.9% | 96.8% | 87.6% | 103% | 94.9% | 83% | 88.8% | 90.8% | 0 | 0 | 0 | 0 | 4.1 | > 10 µM | > 10 µM | > 10 µM | > 10 µM | > 10 µM
COc1ccccc1N1CCN(CCCNc2cc(=O)n(C)c(=O)n2C)CC1 [urapidil] | 91.1% | 97.5% | 95.2% | 101% | 103% | 100% | 100% | 98.8% | 98.6% | 102% | 96.7% | 98.5% | 96.4% | 102% | 107% | 92.1% | 96.4% | 97.9% | 101% | 104% | 105% | 90.1% | 107% | 95.8% | 95% | 0 | 0 | 0 | 0 | 0 | > 10 µM | > 10 µM | > 10 µM | > 10 µM | > 10 µM
NC(N)=O [urea] | 95.8% | 97.9% | 98.6% | 101% | 97.2% | 97.8% | 100% | 104% | 92.3% | 103% | 100% | 92.1% | 93.8% | 114% | 89.3% | 96.4% | 93.4% | 102% | 94.5% | 108% | 82.1% | 86.1% | 90.2% | 86.5% | 94.2% | 0 | 0 | 0 | 0 | 0 | > 10 µM | > 10 µM | > 10 µM | > 10 µM | > 10 µM
Cc1onc(-c2ccccc2)c1-c1ccc(S(N)(=O)=O)cc1 [valdecoxib] | 96.5% | 94.9% | 97.8% | 99.5% | 98.5% | 102% | 99.1% | 106% | 93.8% | 99.5% | 95.6% | 104% | 105% | 96.9% | 106% | 103% | 97.5% | 98% | 93.4% | 93.6% | 89.6% | 95.3% | 97.5% | 96% | 96.1% | 0 | 0 | 0 | 0 | 0 | > 10 µM | > 10 µM | > 10 µM | > 10 µM | > 10 µM
CC(C)(C)c1ccc(S(=O)(=O)Nc2ccc(Cl)cc2C(=O)c2cc[n+]([O-])cc2)cc1 [vercirnon] | 97.7% | 97.5% | 97.1% | 104% | 104% | 98.2% | 97.4% | 94.7% | 95.6% | 106% | 95.4% | 99.9% | 99.7% | 93% | 96.3% | 89.6% | 97.4% | 87.4% | 110% | 100% | 93.4% | 93.7% | 104% | 106% | 89.4% | 0 | 0 | 0 | 0 | 0 | > 10 µM | > 10 µM | > 10 µM | > 10 µM | > 10 µM
CC[C@]1(O)C[C@@H]2CN(CCc3c([nH]c4ccccc34)[C@@](C(=O)OC)(c3cc4c(cc3OC)N(C)[C@H]3[C@@](O)(C(N)=O)[C@H](O)[C@]5(CC)C=CCN6CC[C@]43[C@@H]65)C2)C1 [vindesine] | 98.7% | 73.5% | 31.6% | 26.4% | 22.3% | 96.4% | 95.3% | 83.3% | 33.6% | 27.3% | 93.8% | 70.6% | 61.4% | 47% | 45.9% | 93.8% | 72.7% | 48.5% | 41.2% | 40.3% | 92.9% | 64.8% | 43.2% | 35.8% | 37.2% | 25.7 | 14.3 | 17.8 | 20.6 | 23.5 | 0.018 µM | 0.219 µM | 0.0122 µM | 0.0121 µM | 0.0085 µM
Cn1nc(-c2ccc(C(F)(F)F)cc2)nc2c(=O)n(C)c(=O)nc1-2 [walrycin-B] | 105% | 107% | 100% | 98% | 1.8% | 102% | 100% | 102% | 101% | 34.4% | 109% | 108% | 108% | 98% | 48.5% | 96.6% | 99.2% | 99.3% | 61.8% | 7.5% | 108% | 101% | 84.7% | 51.3% | 1.6% | 5.7 | 3.5 | 3 | 10.2 | 11.6 | 3.02 µM | 3.26 µM | 2.87 µM | 1.15 µM | 0.88 µM
